Test [1] concerns human peripheral blood mononuclear cells (hPBMC). Put plainly: human PBMC assay, Example 7 (oligo 20 μg/ml, cPLGA 100 μg/ml). It counts as cell-based. As to conditions: for immunomodulatory activity: combined with cPLGA; for IFN-α Mean / IFN-γ Mean: mean of donors 28115-28118. Here is the method:
(§1) Hexameric oligonucleotides were tested for immunomodulatory activity alone and complexed with lactic acid/glycolic acid copolymer microcarrier beads using a human peripheral blood mononuclear cells (hPBMC) assay. Peripheral blood was collected from healthy volunteers by venipuncture using heparinized syringes. Blood was layered onto a FICOLL® (Amersham Pharmacia Biotech) cushion and centrifuged. hPBMCs, located at the FICOLL® interface, were collected, then washed twice with cold phosphate buffered saline (PBS). The cells were resuspended and cultured in 48 well plates at 2×10^6 cells/mL at 37° C. in RPMI 1640 with 10% heat-inactivated human AB serum plus 50 units/mL penicillin, 50 μg/mL streptomycin, 300 μg/mL glutamine, 1 mM sodium pyruvate, and 1×MEM non-essential amino acids (NEAA).
(§2) Oligonucleotides were tested as single agents, or in combination with PLGA microspheres (unmodified or cationic). All oligonucleotides contained 100% phosphorothioate linkages and were tested at 20 μg/ml. The PLGA microcarriers were used at 250 μg/ml. When oligos were tested with PLGA microcarriers, the oligo and the microcarriers were added at the same time to the culture. The cells were cultured in the in the presence of test samples for 24 hours, then cell-free medium was collected from each well and assayed for IFN-γ and IFN-α concentration. Two different oligonucleotides were used as controls: a first oligonucleotide known to have immunostimulatory activity (a 22mer oligonucleotide containing an ISS (“ISS+,” 5′-[…]-3′(SEQ ID NO:2)) and a second oligonucleotide of similar sequence but lacking immunostimulatory activity (“ISS−,” 5′-[…]-3′ (SEQ ID NO:1)). SAC (PANSORBIN® CalBiochem, 1/5000 dilution) and a untreated culture were used as additional positive and negative controls, respectively. SAC contains Staph. aureus (Cowan I) cell material. All samples were assayed in duplicate.
(§3) IFN-γ and IFN-α were assayed using CYTOSCREEN™ ELISA kits from BioSource International, Inc., according to the manufacturer's instructions.
(§4) The immunomodulatory activity of the oligonucleotides used in Examples 3 and 4 was confirmed with the human PBMC assay using PBMCs from an additional four donors (donors 28051-28054). Oligonucleotides were tested alone or in combination with cationic PLGA as described in Example 3, except that 96 well plates were used instead of 48 well plates and the oligonucleotides were premixed with the cationic microspheres at room temperature for 15 minutes before they were added to the culture, rather than being added simultaneously to the culture.
Additional oligonucleotides, some incorporating modified bases, were tested for immunomodulatory activity in the human PBMC assay. Oligonucleotides were tested alone or in combination with cPLGA as described in Example 5. The oligonucleotides were premixed with the cationic PLGA microspheres for 15 minutes at room temperature at concentrations of 20 μg/ml and 100 μg/ml, respectively.

The test system is the same in test [2]. Put plainly: human PBMC assay, Example 6. In kind it is cell-based. Here is the method:
as §1, §2, §3, §4
Additional oligonucleotides were tested for immunomodulatory activity in the human PBMC assay. Oligonucleotides were tested alone or in combination with cPLGA as described in Example 5.
Additional oligonucleotides were tested using hPBMCs from volunteers 154-157 using the same assay. Results, which are shown in Table 7, confirm the activity of oligonucleotides fitting the formula 5′-X1TCGX2-3′, where the oligonucleotide is a 3-6mer, X1 is zero or one nucleotide and X2 is zero to three nucleotides.

Setting [3] is: delivered as oligonucleotide/MC complex (cPLGA).

For 5′-AATCGT-3′ [Oligonucleotide 6-25], the “immunomodulatory activity” value in test [1] is recorded as “active”. Also, the IFN-α in test [1] (donor 28115) was found to be 7 pg/mL; in test [1] (donor 28116) it was 0 pg/mL; in test [1] (donor 28117), 0 pg/mL; in test [1] (donor 28118), 0 pg/mL. Further, the IFN-γ in test [1] (donor 28115) came to 2 pg/mL; in test [1] (donor 28116) it was 15 pg/mL; in test [1] (donor 28117) it was 11 pg/mL; in test [1] (donor 28118) it was 0 pg/mL. Also, in test [1], the “IFN-α Mean” value is 2 pg/mL. In test [1], the “IFN-γ Mean” value came out at 7 pg/mL.

Take 5′-ACGTTT-3′ [Oligonucleotide 6-13]: the “immunomodulatory activity” value in test [2] (delivered alone) and in test [2] (setting [3]) was “inactive” each time. Moreover, the IFN-α in test [2] (donor 28075) came out at 10 pg/mL; in test [2] (donor 28076), 39 pg/mL; in test [2] (donor 28077), 28 pg/mL; in test [2] (donor 28078), 34 pg/mL. For the same substance, the IFN-γ in test [2] (donor 28075) worked out at 8 pg/mL; in test [2] (donor 28076) it was 225 pg/mL; in test [2] (donor 28077), 18 pg/mL; in test [2] (donor 28078) it was 15 pg/mL. Further, the “IFN-α Mean” value in test [2] (mean of donors 28075-28078) was 28 pg/mL. Also, the “IFN-γ Mean” value in test [2] (mean of donors 28075-28078) turned out to be 67 pg/mL.

As to 5′-CCGTTT-3′ [Oligonucleotide 6-14], the “immunomodulatory activity” value in test [2] (delivered alone) and in test [2] (setting [3]) was “inactive” in each case. Besides, the IFN-α in test [2] (donor 28075) is 15 pg/mL; in test [2] (donor 28076), 51 pg/mL; in test [2] (donor 28077), 9 pg/mL; in test [2] (donor 28078), 230 pg/mL. Moreover, the IFN-γ in test [2] (donor 28075) stood at 11 pg/mL; in test [2] (donor 28076) it was 12 pg/mL; in test [2] (donor 28077) it was 14 pg/mL; in test [2] (donor 28078), 11 pg/mL. Also, the “IFN-α Mean” value in test [2] (mean of donors 28075-28078) amounted to 76 pg/mL. Moreover, the “IFN-γ Mean” value in test [2] (mean of donors 28075-28078) turned out to be 12 pg/mL.

Consider 5′-CGATCG-3′ [Oligonucleotide 6-11], for which the “IFN-α Mean” value in test [2] (mean of volunteers 154-157) stood at 0 pg/mL. In addition, the “IFN-γ Mean” value in test [2] (mean of volunteers 154-157) was determined as 3 pg/mL. Moreover, the IFN-α in test [2] (volunteer 154), in test [2] (volunteer 155), in test [2] (volunteer 156) and in test [2] (volunteer 157) was 0 pg/mL throughout. Also, the IFN-γ in test [2] (volunteer 154) is 0 pg/mL; in test [2] (volunteer 155), 0 pg/mL; in test [2] (volunteer 156), 10 pg/mL; in test [2] (volunteer 157), 0 pg/mL.

With “5′-GACGTT-3′ [Oligonucleotide 6-17, reference compound]”, the “immunomodulatory activity” value in test [2] (setting [3]) is “largely inactive”. Moreover, the “IFN-α Mean” value in test [2] (mean of volunteers 154-157) was determined as 0 pg/mL. Besides, in test [2] (mean of volunteers 154-157), the “IFN-γ Mean” value was determined as 4 pg/mL. Moreover, the IFN-α in test [2] (volunteer 154), in test [2] (volunteer 155), in test [2] (volunteer 156) and in test [2] (volunteer 157) was 0 pg/mL each time. In addition, the IFN-γ stood at 0 pg/mL in test [2] (volunteer 154), 0 pg/mL in test [2] (volunteer 155), 16 pg/mL in test [2] (volunteer 156) and 0 pg/mL in test [2] (volunteer 157).

For the substance 5′-GCGTTT-3′ [Oligonucleotide 6-15], the “immunomodulatory activity” value in test [2] (delivered alone) and in test [2] (setting [3]) was “inactive” throughout. Besides, the IFN-α in test [2] (donor 28075) was found to be 36 pg/mL; in test [2] (donor 28076), 9 pg/mL; in test [2] (donor 28077) it was 35 pg/mL; in test [2] (donor 28078), 36 pg/mL. Further, the IFN-γ in test [2] (donor 28075) is 11 pg/mL; in test [2] (donor 28076) it was 12 pg/mL; in test [2] (donor 28077), 15 pg/mL; in test [2] (donor 28078), 11 pg/mL. In addition, the “IFN-α Mean” value in test [2] (mean of donors 28075-28078) worked out at 29 pg/mL. Besides, the “IFN-γ Mean” value in test [2] (mean of donors 28075-28078) is 13 pg/mL.

On to “5′-TCCGGA-3′ [Oligonucleotide 6-18, reference compound]”, for which, in test [2] (setting [3]), the “immunomodulatory activity” value was “largely inactive”. Also, in test [2] (mean of volunteers 154-157), the “IFN-α Mean” value was found to be 0 pg/mL. Moreover, the “IFN-γ Mean” value in test [2] (mean of volunteers 154-157) was 4 pg/mL. Further, the IFN-α in test [2] (volunteer 154), in test [2] (volunteer 155), in test [2] (volunteer 156) and in test [2] (volunteer 157) was 0 pg/mL each time. Moreover, the IFN-γ was 0 pg/mL in test [2] (volunteer 154), 0 pg/mL in test [2] (volunteer 155), 15 pg/mL in test [2] (volunteer 156) and 0 pg/mL in test [2] (volunteer 157).

As to 5′-TCG-3′ [Oligonucleotide 3-1], the “immunomodulatory activity” value in test [2] (setting [3]) is on record as “active in two out of four donors”. The IFN-α turned out to be 0 pg/mL in test [2] (donor 28075), 0 pg/mL in test [2] (donor 28076), 4 pg/mL in test [2] (donor 28077) and 11 pg/mL in test [2] (donor 28078). For the same substance, the IFN-γ turned out to be 7 pg/mL in test [2] (donor 28075), 11 pg/mL in test [2] (donor 28076), 12 pg/mL in test [2] (donor 28077) and 15 pg/mL in test [2] (donor 28078). Further, the “IFN-α Mean” value in test [2] (mean of donors 28075-28078) came to 4 pg/mL. Also, in test [2] (mean of donors 28075-28078), the “IFN-γ Mean” value came out at 11 pg/mL.

Turning to 5′-TCGCGA-3′ [Oligonucleotide 6-10], the “IFN-α Mean” value in test [2] (mean of volunteers 154-157) was 0 pg/mL. The “IFN-γ Mean” value in test [2] (mean of volunteers 154-157) came to 4 pg/mL. In addition, the IFN-α in test [2] (volunteer 154), in test [2] (volunteer 155), in test [2] (volunteer 156) and in test [2] (volunteer 157) was 0 pg/mL throughout. The IFN-γ in test [2] (volunteer 154) is 0 pg/mL; in test [2] (volunteer 155), 0 pg/mL; in test [2] (volunteer 156) it was 15 pg/mL; in test [2] (volunteer 157) it was 0 pg/mL.

As for 5′-TCGT-3′ [Oligonucleotide 4-1], the “immunomodulatory activity” value in test [2] (setting [3]) is given as “active in two out of four donors”. For the same substance, the IFN-α in test [2] (donor 28075) was determined as 0 pg/mL; in test [2] (donor 28076) it was 3 pg/mL; in test [2] (donor 28077), 0 pg/mL; in test [2] (donor 28078), 10 pg/mL. Also, the IFN-γ in test [2] (donor 28075) is 9 pg/mL; in test [2] (donor 28076) it was 12 pg/mL; in test [2] (donor 28077), 14 pg/mL; in test [2] (donor 28078), 14 pg/mL. Besides, the “IFN-α Mean” value in test [2] (mean of donors 28075-28078) was found to be 3 pg/mL. Also, in test [2] (mean of donors 28075-28078), the “IFN-γ Mean” value was 12 pg/mL.

On to 5′-TCGTCG-3′ [Oligonucleotide 6-12], for which the “immunomodulatory activity” value in test [2] (setting [3]) is given as “highly active”. Moreover, the IFN-α in test [2] (donor 28075) amounted to 5 pg/mL; in test [2] (donor 28076), 3 pg/mL; in test [2] (donor 28077) it was 187 pg/mL; in test [2] (donor 28078), 181 pg/mL. The IFN-γ in test [2] (donor 28075) is 8 pg/mL; in test [2] (donor 28076), 13 pg/mL; in test [2] (donor 28077), 13 pg/mL; in test [2] (donor 28078) it was 18 pg/mL. For the same substance, the “IFN-α Mean” value in test [2] (mean of donors 28075-28078) was found to be 94 pg/mL. The “IFN-γ Mean” value in test [2] (mean of donors 28075-28078) stood at 13 pg/mL.

Consider 5′-TTCGT-3′ [Oligonucleotide 5-3], for which the “immunomodulatory activity” value in test [1] is listed as “active in two of four donors”. In addition, the IFN-α is 10 pg/mL in test [1] (donor 28115), 0 pg/mL in test [1] (donor 28116), 0 pg/mL in test [1] (donor 28117) and 0 pg/mL in test [1] (donor 28118). In addition, the IFN-γ in test [1] (donor 28115) is 26 pg/mL; in test [1] (donor 28116), 4 pg/mL; in test [1] (donor 28117), 17 pg/mL; in test [1] (donor 28118) it was 0 pg/mL. The “IFN-α Mean” value in test [1] is 3 pg/mL. Also, the “IFN-γ Mean” value in test [1] was 12 pg/mL.

5′-TTTTCG-3′ [Oligonucleotide 6-5]: the “IFN-α Mean” value in test [2] (mean of volunteers 154-157) worked out at 0 pg/mL. Moreover, the “IFN-γ Mean” value in test [2] (mean of volunteers 154-157) stood at 3 pg/mL. Further, the IFN-α in test [2] (volunteer 154), in test [2] (volunteer 155), in test [2] (volunteer 156) and in test [2] (volunteer 157) was 0 pg/mL throughout. For the same substance, the IFN-γ was 0 pg/mL in test [2] (volunteer 154), 0 pg/mL in test [2] (volunteer 155), 11 pg/mL in test [2] (volunteer 156) and 0 pg/mL in test [2] (volunteer 157).

(Values after US8586555B2, “Immunomodulatory compositions, formulations, and methods for use thereof” (Dynavax Technologies Corporation, priority 2001, dated 2013).)
